# Reference: article PMC8878047 (Pharmaceutics, 2022)
# Read-outs that look alike come from different tables or passages of the source.
# Columns and labels:
# [1] = Pharmacokinetic study in plasma after oral administration (HPLC-MS); settings: SD rats, plasma, EFX 10 mg/kg, EFX-Ca 12 mg/kg
# E. coli [2] = experiment: Quasi-clinical trial on E. coli-infected AA broilers (drug-mixed feeding); settings: AA broilers
# Procedure: (§1) Then, broilers were randomly and equally divided into five different groups and marked as five groups. […] Note that the daily drug-mixed feeding ratio (g drug/kg feed) was indicated for the first 4 h every day, and unmedicated feed then followed. In addition, E. coli strains for the infection of chicken was supplied as a freeze-dried powder. They were revived and cultured according to the standard procedures. The strain was inoculated into a liquid medium and cultured in a 37 °C incubator for 6–8 h. We detected the concentration of the bacterial liquid to be 2.8 × 10^8 CFU/mL as the pathogenic concentration. Finally, all of the chickens except the healthy control group were intramuscularly injected with 0.5 mL of pathogenic bacteria, and all chickens were fasted for 4 h. After successfully simulating the bacterial infection of the chickens, the drug-mixed feeding chickens were continuously fed for 6 d. During this time, we observed their behavioral habits, mortality, and recovery rates.
# E. coli [3] = experiment: Quasi-clinical trial on E. coli-infected 817 broilers (drug-mixed feeding); settings: 817 broilers
# Procedure: as §1
# [4] = Procedure: All tests were conducted in the animal experimental center of Guangxi Medical University. Preliminary experiments were needed before starting official tests. […] Groups of mice (n = 10 per group, half male and half female) received different doses of the tested compounds by gavage at the same single dose of drug solution, which was uniformed to be […] (drug solution)/10 g, but containing different concentration of tested drugs. […] We compared these mice with the control group in which the mice were not given drugs, according to the pre-experimental procedure. We closely observed the mice for 6 h after the gavage for signs of toxicity and mortality. As soon as death occurred among the maximum-dose group, we conducted an autopsy and took samples from the main organs for histopathological examination. In addition, we monitored all of the tested mice for 2 weeks to record their weight and mortality.
# [5] = system: neutrophil cluster aggregation; experiment: CuSO4-induced inflammation model in Tg(mpx:eGFP) zebrafish; settings: 10 μM CuSO4 40 min, Tg(mpx:eGFP) 3 dpf
# [6] = system: wild type AB strain zebrafish; settings: 30 embryos per well
# Procedure: Zebrafish were incubated and grown in the Joint Laboratory established by Shandong Rui’ying Pharmaceutical Group (Heze, China) and China Pharmaceutical University. Both the Wild-type AB (Danio rerio) and Tg(mpx:eGFP) zebrafish strains were maintained under the guidance of the standard procedures of The Zebrafish Book. […] Then the zebrafish were allowed to naturally mate and spawn the next morning. The normally born embryos were then collected after 1 h and kept in an incubating system at 28 °C. The 6 hpf (hour post fertilization) embryos were transferred into a 6-well plate exposed to 5 mL of egg water, in which 30 embryos were in each well.
# [7] = system: H2O2-induced ROS production; experiment: H2O2-induced oxidative stress model in zebrafish (DCFH-DA); settings: 48 h pre-treatment, H2O2 1.0 mM 4 h, H2O2-induced 17,250, control 590
# [8] = 0.01 μM medicated bath, 120 hpf
structure (smiles),measurement,setting,value
"CCN1CCN(c2cc3c(cc2F)c(=O)c(C(=O)O)cn3C2CC2)CC1 [EFX, enrofloxacin, reference compound]",Ke,[1],0.28
same,t 1/2β,[1],2.43 H
same,Average Final Weight,E. coli [2]; EFX single dosage 11 g + 1.5 kg feed,1880 ± 113 g
same,Average Weight Gain,"E. coli [2]; EFX single dosage 11 g + 1.5 kg feed, Table 7",380
same,Average Increment of Weight,"E. coli [2]; EFX single dosage 11 g + 1.5 kg feed, Table 8",250 g
same,Cure Rate (%),"E. coli [2]; EFX single dosage 11 g drug (5% solution) + 1.5 kg feed/4 h, 6 d",62%
same,Survival Number,"E. coli [2]; EFX single dosage 11 g drug (5% solution) + 1.5 kg feed/4 h, 6 d, 50 per group",31
same,Average Final Weight,E. coli [3]; EFX single dosage 11 g + 0.75 kg feed,1030 ± 74 g
same,Average Weight Gain,"E. coli [3]; EFX single dosage 11 g + 0.75 kg feed, Table 7",100
same,Average Increment of Weight,"E. coli [3]; EFX single dosage 11 g + 0.75 kg feed, Table 8",140 g
same,Cure Rate (%),"E. coli [3]; EFX single dosage 11 g drug (5% solution) + 0.75 kg feed/4 h, 6 d",64%
same,Survival Number,"E. coli [3]; EFX single dosage 11 g drug (5% solution) + 0.75 kg feed/4 h, 6 d, 50 per group",32
same,"Body Weight (g, x¯ ± SD)","[4]; 2000 mg/kg single gavage, Day-0",18.35 ± 1.87 g
same,"Body Weight (g, x¯ ± SD)","[4]; 2000 mg/kg single gavage, Day-1",20.21 ± 2.06 g
same,"Body Weight (g, x¯ ± SD)","[4]; 2000 mg/kg single gavage, Day-4",25.19 ± 1.81 g
same,"Body Weight (g, x¯ ± SD)","[4]; 2000 mg/kg single gavage, Day-7",28.89 ± 1.99 g
same,"Body Weight (g, x¯ ± SD)","[4]; 2000 mg/kg single gavage, Day-14",36.93 ± 3.07 g
same,"Body Weight (g, x¯ ± SD)","[4]; 3031 mg/kg single gavage, Day-0",18.40 ± 1.78 g
same,"Body Weight (g, x¯ ± SD)","[4]; 3031 mg/kg single gavage, Day-1",19.20 ± 2.18 g
same,"Body Weight (g, x¯ ± SD)","[4]; 3031 mg/kg single gavage, Day-4",24.83 ± 3.08 g
same,"Body Weight (g, x¯ ± SD)","[4]; 3031 mg/kg single gavage, Day-7",29.17 ± 2.51 g
same,"Body Weight (g, x¯ ± SD)","[4]; 3031 mg/kg single gavage, Day-14",33.20 ± 4.46 g
same,"Body Weight (g, x¯ ± SD)","[4]; 4595 mg/kg single gavage, Day-0",18.67 ± 1.05 g
same,"Body Weight (g, x¯ ± SD)","[4]; 4595 mg/kg single gavage, Day-1",19.14 ± 0.96 g
same,"Body Weight (g, x¯ ± SD)","[4]; 4595 mg/kg single gavage, Day-4",23.54 ± 1.44 g
same,"Body Weight (g, x¯ ± SD)","[4]; 4595 mg/kg single gavage, Day-7",28.20 ± 1.52 g
same,"Body Weight (g, x¯ ± SD)","[4]; 4595 mg/kg single gavage, Day-14",33.96 ± 2.53 g
same,"Body Weight (g, x¯ ± SD)","[4]; 6964 mg/kg single gavage, Day-0",18.59 ± 1.34 g
same,"Body Weight (g, x¯ ± SD)","[4]; 6964 mg/kg single gavage, Day-1",19.68 ± 1.06 g
same,"Body Weight (g, x¯ ± SD)","[4]; 6964 mg/kg single gavage, Day-4",23.85 ± 1.88 g
same,"Body Weight (g, x¯ ± SD)","[4]; 6964 mg/kg single gavage, Day-7",27.98 ± 3.40 g
same,"Body Weight (g, x¯ ± SD)","[4]; 6964 mg/kg single gavage, Day-14",36.13 ± 5.35 g
same,"Body Weight (g, x¯ ± SD)","[4]; 16,000 mg/kg single gavage, Day-0",18.86 ± 1.03 g
same,"Body Weight (g, x¯ ± SD)","[4]; 16,000 mg/kg single gavage, Day-1",18.55 ± 1.70 g
same,"Body Weight (g, x¯ ± SD)","[4]; 16,000 mg/kg single gavage, Day-7",24.35 ± 2.63 g
same,"Body Weight (g, x¯ ± SD)","[4]; 16,000 mg/kg single gavage, Day-14",33.20 ± 4.00 g
same,CuSO4-induced neutrophil aggregation,[5]; 0.1 μM pre-incubation 1 h,still maintained obvious clustering status
same,CuSO4-induced neutrophil aggregation,[5]; 1 μM pre-incubation 1 h,partial aggregations of the neutrophils could be observed
same,statistical death of the tested zebrafish,"[6]; 0.01 μM medicated bath, 24 hpf",6
same,statistical survival of the tested zebrafish,"[6]; 0.01 μM medicated bath, 24 hpf",24
same,statistical death of the tested zebrafish,"[6]; 0.01 μM medicated bath, 48 hpf",6
same,statistical survival of the tested zebrafish,"[6]; 0.01 μM medicated bath, 48 hpf",24
same,statistical death of the tested zebrafish,"[6]; 0.01 μM medicated bath, 72 hpf",6
same,statistical survival of the tested zebrafish,"[6]; 0.01 μM medicated bath, 72 hpf",24
same,statistical death of the tested zebrafish,"[6]; 0.01 μM medicated bath, 96 hpf",6
same,statistical survival of the tested zebrafish,"[6]; 0.01 μM medicated bath, 96 hpf",24
same,statistical death of the tested zebrafish,[6]; [8],6
same,statistical survival of the tested zebrafish,[6]; [8],24
same,statistical death of the tested zebrafish,"[6]; 0.1 μM medicated bath, 24 hpf",4
same,statistical survival of the tested zebrafish,"[6]; 0.1 μM medicated bath, 24 hpf",26
same,statistical death of the tested zebrafish,"[6]; 0.1 μM medicated bath, 48 hpf",4
same,statistical survival of the tested zebrafish,"[6]; 0.1 μM medicated bath, 48 hpf",26
same,statistical death of the tested zebrafish,"[6]; 0.1 μM medicated bath, 72 hpf",4
same,statistical survival of the tested zebrafish,"[6]; 0.1 μM medicated bath, 72 hpf",26
same,statistical death of the tested zebrafish,"[6]; 0.1 μM medicated bath, 96 hpf",4
same,statistical survival of the tested zebrafish,"[6]; 0.1 μM medicated bath, 96 hpf",26
same,statistical death of the tested zebrafish,"[6]; 0.1 μM medicated bath, 120 hpf",4
same,statistical survival of the tested zebrafish,"[6]; 0.1 μM medicated bath, 120 hpf",26
same,statistical death of the tested zebrafish,"[6]; 1 μM medicated bath, 24 hpf",2
same,statistical survival of the tested zebrafish,"[6]; 1 μM medicated bath, 24 hpf",28
same,statistical death of the tested zebrafish,"[6]; 1 μM medicated bath, 48 hpf",2
same,statistical survival of the tested zebrafish,"[6]; 1 μM medicated bath, 48 hpf",28
same,statistical death of the tested zebrafish,"[6]; 1 μM medicated bath, 72 hpf",2
same,statistical survival of the tested zebrafish,"[6]; 1 μM medicated bath, 72 hpf",28
same,statistical death of the tested zebrafish,"[6]; 1 μM medicated bath, 96 hpf",2
same,statistical survival of the tested zebrafish,"[6]; 1 μM medicated bath, 96 hpf",28
same,statistical death of the tested zebrafish,"[6]; 1 μM medicated bath, 120 hpf",2
same,statistical survival of the tested zebrafish,"[6]; 1 μM medicated bath, 120 hpf",28
same,statistical death of the tested zebrafish,"[6]; 10 μM medicated bath, 24 hpf",2
same,statistical survival of the tested zebrafish,"[6]; 10 μM medicated bath, 24 hpf",28
same,statistical death of the tested zebrafish,"[6]; 10 μM medicated bath, 48 hpf",2
same,statistical survival of the tested zebrafish,"[6]; 10 μM medicated bath, 48 hpf",28
same,statistical death of the tested zebrafish,"[6]; 10 μM medicated bath, 72 hpf",2
same,statistical survival of the tested zebrafish,"[6]; 10 μM medicated bath, 72 hpf",28
same,statistical death of the tested zebrafish,"[6]; 10 μM medicated bath, 96 hpf",2
same,statistical survival of the tested zebrafish,"[6]; 10 μM medicated bath, 96 hpf",28
same,statistical death of the tested zebrafish,"[6]; 10 μM medicated bath, 120 hpf",2
same,statistical survival of the tested zebrafish,"[6]; 10 μM medicated bath, 120 hpf",28
same,statistical death of the tested zebrafish,"[6]; 20 μM medicated bath, 24 hpf",4
same,statistical survival of the tested zebrafish,"[6]; 20 μM medicated bath, 24 hpf",26
same,statistical death of the tested zebrafish,"[6]; 20 μM medicated bath, 48 hpf",4
same,statistical survival of the tested zebrafish,"[6]; 20 μM medicated bath, 48 hpf",26
same,statistical death of the tested zebrafish,"[6]; 20 μM medicated bath, 72 hpf",4
same,statistical survival of the tested zebrafish,"[6]; 20 μM medicated bath, 72 hpf",26
same,statistical death of the tested zebrafish,"[6]; 20 μM medicated bath, 96 hpf",4
same,statistical survival of the tested zebrafish,"[6]; 20 μM medicated bath, 96 hpf",26
same,statistical death of the tested zebrafish,"[6]; 20 μM medicated bath, 120 hpf",4
same,statistical survival of the tested zebrafish,"[6]; 20 μM medicated bath, 120 hpf",26
same,Average IOD (integrated optical density) of green fluorescence,[7]; 0.01 μM,970 a.u.
same,Average IOD (integrated optical density) of green fluorescence,[7]; 0.1 μM,772 a.u.
same,Average IOD (integrated optical density) of green fluorescence,[7]; 1 μM,848 a.u.
